In patent US7951407B2, “Ruminant feed containing N-carbamoyl glutamate” (University of Maryland, priority 2003, dated 2011):

Experiments:
[1] = system: Ruminal epithelial cells (REC); test: Net urea production by isolated ruminal epithelial cells incubated with ornithine-urea cycle substrate intermediates; format: cell-based, sheep; set-up: net urea production: dose or concentration left out as unconfirmed
From the text: Ruminal epithelial cells (REC) and duodenal mucosal cells (DMC) were harvested from four growing Polypay ram lambs (33.1 plus/minus 4.8 kg body weight) fed a pelleted diet comprised of 55% forage (alfalfa hay) and 45% concentrate (dry ground corn. soybean meal, and premix of minerals and vitamins) ad libitum for at least two weeks before slaughter. All animal procedures were approved by the Beltsville Agricultural Research Center Institutional Animal Care and Use Committee (protocol # 02-008). Gut cells were isolated separately for each sheep following the procedures described by Baldwin and McLeod and Oba et al. Cell viability averaged 73.1% for REC and 82.4% for DMC. […] N-carbamoyl glutamate is a stable analog of […] stimulator of carbamoyl phosphate synthetase. Treatments were arranged in a 2×4 factorial design, and performed in triplicate incubations for each sheep. […] Krebs-Ringer plus 24 mM HEPES and 0.12 M sodium bicarbonate) was oxygenated with O2:CO2 (95:5) and the pH adjusted to 7.4. Incubations were initiated by addition of 0.5 ml of cell suspension (1×10^7 viable cells) to freshly gassed (20 s under 95:5 O2:CO2) media, and flasks were placed into a reciprocal action shaking water bath at 37° C. After 90 min, 0.2 ml of concentrated HClO4 was injected into the flasks to terminate the incubation, followed by addition of 0.3 ml of 5.8 M K2CO3 to neutralize the media. […] See Lobley, G. E. et al., Br. J. Nutr. […] Urea concentration was determined by isotope dilution with gas chromatography-mass spectrometry (HP6890 coupled to an HP5973 Mass Selective Detector, Agilent, Palo Alto, Calif.) essentially according to the known method of Calder et al. See Calder, A. G., Rapid Commun. […] Net urea production was calculated by subtracting background urea present at time 0 (Control) from concentrations after 90-min incubation. Data were analyzed separately for REC and DMC using the Proc Mixed procedure of SAS (SAS Inc., Cary, N.C.) with fixed effect of VFA type, substrate combination, their interactions, and random effect of animals in the model.

[2] = system: duodenal mucosal cells (DMC); test: Net urea production by isolated duodenal mucosal cells incubated with ornithine-urea cycle substrate intermediates; format: cell-based, sheep; set-up: net urea production: dose or concentration left out as unconfirmed
From the text: Ruminal epithelial cells (REC) and duodenal mucosal cells (DMC) were harvested from four growing Polypay ram lambs (33.1 plus/minus 4.8 kg body weight) fed a pelleted diet comprised of 55% forage (alfalfa hay) and 45% concentrate (dry ground corn. soybean meal, and premix of minerals and vitamins) ad libitum for at least two weeks before slaughter. All animal procedures were approved by the Beltsville Agricultural Research Center Institutional Animal Care and Use Committee (protocol # 02-008). Gut cells were isolated separately for each sheep following the procedures described by Baldwin and McLeod and Oba et al. Cell viability averaged 73.1% for REC and 82.4% for DMC. […] Urea concentration was determined by isotope dilution with gas chromatography-mass spectrometry (HP6890 coupled to an HP5973 Mass Selective Detector, Agilent, Palo Alto, Calif.) essentially according to the known method of Calder et al. See Calder, A. G., Rapid Commun. […] Net urea production was calculated by subtracting background urea present at time 0 (Control) from concentrations after 90-min incubation. Data were analyzed separately for REC and DMC using the Proc Mixed procedure of SAS (SAS Inc., Cary, N.C.) with fixed effect of VFA type, substrate combination, their interactions, and random effect of animals in the model.

Structure (SMILES) | net urea production by REC relative to DMC ([1]; REC versus DMC in the presence of arginine) | net urea production ([1]; REC, 90 min incubation in media, background urea at time 0 subtracted) | net urea production ([2]; 90 min incubation in media, background urea at time 0 subtracted) | effect of N-carbamoyl glutamate addition on urea synthesis ([1]; REC, AspONG versus AspON (P=0.11)) | effect of N-carbamoyl glutamate addition on urea synthesis ([2]; AspONG versus AspON (P<0.001))
N=C(N)NCCC[C@H](N)C(=O)O [Arg, arginine] | 25 fold | 54.5±6.3 nmoles·10^6 cells^−1 90 min^−1 | 2.1±0.7 nmoles·10^6 cells^−1 90 min^−1 |  | 
NC(=O)N[C@@H](CCC(=O)O)C(=O)O [N-carbamoyl glutamate] |  |  |  | stimulatory effect | stimulatory effect
